In patent publication US20060116368A1, “4-Piperidinecarboxamide modulators of vanilloid VR1 receptor” (priority 2004, published 2006):

Target: T1, Human Vanilloid Receptor 1 (Homo sapiens, UniProt Q8NER1)
T1 construct: expressed in transfected cells; host or cells: HEK 293
Test: Human VR1 functional assay using FLIPR, Protocol 2
Assay type: cell-based
Conditions: for h % I (1 uM): inhibition of capsaicin (EC80)-induced calcium response, HEK 293 stably transfected hVR1
Procedure: The functional activity of the test compounds was determined by measuring changes in intracellular calcium concentration using FLIPR™ Calcium-3 Assay Kit and FLIPR™ technology.
HEK 293 cells stably transfected with Human Vanilloid Receptor 1 were maintained at 37° C. and 5% CO2 in: Dulbecco's Modification of Eagle's Medium (4.5 g/L glucose, L-glutamine, sodium pyruvate), 10% FBS, 1× Penicillin-Streptomycin, 400 ug/mL G418 Sulfate. Approximately 24 hours prior to assay, 5,000 cells/well were plated onto a 384-well black clear bottom poly-D-lysine-coated assay plate with a well volume of 25 μL using Titertek Multidrop.
On the day of the assay, the medium was dumped and 50 μL of dye (bulk kit vials diluted with 200 mL buffer) was loaded using Multidrop. Plates were incubated with dye at 37° C. for 30 minutes followed by 30 minutes incubation at room temperature. Then the plates were assayed by FLIPR™ with 2 additions: 12.5 μL test compound with 5 minutes data acquisition followed by 12.5 μL capsaicin at the EC80 concentration.
The EC50 values of test compounds were calculated based on a test compound-induced calcium response at the 5-minute time point. The IC50 values of compounds were calculated based on a decreased capsaicin-induced calcium response in the presence of test compound.

T1 sequence (Q8NER1 whole entry): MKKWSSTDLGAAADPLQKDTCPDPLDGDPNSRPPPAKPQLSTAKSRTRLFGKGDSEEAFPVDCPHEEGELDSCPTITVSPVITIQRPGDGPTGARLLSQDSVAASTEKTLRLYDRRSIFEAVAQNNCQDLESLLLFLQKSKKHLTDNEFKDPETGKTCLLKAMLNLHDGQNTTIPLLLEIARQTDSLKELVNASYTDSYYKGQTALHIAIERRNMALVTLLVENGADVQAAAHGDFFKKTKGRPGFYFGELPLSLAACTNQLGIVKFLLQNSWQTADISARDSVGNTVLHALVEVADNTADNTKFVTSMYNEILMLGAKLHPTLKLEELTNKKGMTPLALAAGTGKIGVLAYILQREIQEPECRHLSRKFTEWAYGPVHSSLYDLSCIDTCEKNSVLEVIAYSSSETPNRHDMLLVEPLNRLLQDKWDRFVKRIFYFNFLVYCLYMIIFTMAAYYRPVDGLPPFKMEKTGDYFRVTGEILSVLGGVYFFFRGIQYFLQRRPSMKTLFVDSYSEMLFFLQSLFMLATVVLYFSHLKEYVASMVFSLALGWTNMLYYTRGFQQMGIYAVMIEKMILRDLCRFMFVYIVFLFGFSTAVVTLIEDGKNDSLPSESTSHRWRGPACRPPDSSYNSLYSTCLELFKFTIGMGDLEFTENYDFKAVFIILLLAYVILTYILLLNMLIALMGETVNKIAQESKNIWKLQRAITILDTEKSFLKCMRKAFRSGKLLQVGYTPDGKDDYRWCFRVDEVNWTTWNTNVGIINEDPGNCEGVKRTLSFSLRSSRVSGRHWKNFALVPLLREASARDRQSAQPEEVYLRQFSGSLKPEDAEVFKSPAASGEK

Question: What does the source list for `COC(=O)CC1Oc2ccc(NC(=O)C3CCN(c4cc(F)c(F)c(F)c4)CC3)cc2NC1=O` (stereo not drawn) [Example 179, (3-Oxo-6-{[1-(3,4,5-trifluoro-phenyl)-piperidine-4-carbonyl]-amino}-3,4-dihydro-2H-benzo[1,4]oxazin-2-yl)-acetic acid methyl ester]?
Answer: h % I (1 uM): 54%; IC50 (decreased capsaicin (EC80)-induced calcium response, HEK 293 stably transfected hVR1, read-out: h IC50): 890 nM

Question: `O=C(O)CC1Oc2ccc(NC(=O)C3CCN(c4cc(F)c(F)c(F)c4)CC3)cc2NC1=O` (stereo not drawn) [Example 180, (3-Oxo-6-{[1-(3,4,5-trifluoro-phenyl)-piperidine-4-carbonyl]-amino}-3,4-dihydro-2H-benzo[1,4]oxazin-2-yl)-acetic acid] was tested. Which “h % I (1 uM)” value did it give?
Answer: 5%
